In patent US6884577B2, “Methods for screening compounds for estrogenic activity” (The Regents of the University of California, priority 1993, dated 2005):

Experiments:
[1] = test system: ER at the AP1 site of the collagenase promoter, F9 cells; test: Δcoll73 CAT reporter in F9 cells with transiently transfected ER; assay type: cell-based, human; details: no c-Jun/c-fos, FIG. 1B
Description: Cells were maintained and transfected as previously described in Webb et al., supra. […] […] The cells were glycerol shocked and refed in growth medium containing hormone or ethanolic vehicle.

[2] = test system: human ER at the AP-1 site (collagenase promoter, AP-1-tk), HeLa cells; test: CAT assays of HeLa cells transfected with AP-1 site reporter genes and human ER expression vector; assay type: cell-based; details: transiently expressed human ER, FIG. 2A
Method: Representations, at left, show the human collagenase promoter (shaded) and the consensus AP-1 site. […] CAT activity is normalized to a transfection control with the actin promoter driving expression of βHCG. Single representative experiments are shown, error bars represent standard deviation of triplicate hormone treatments.
Cells were maintained and transfected as previously described in Webb et al., supra. […] F9 cells were seeded at 30% confluence upon 1.5 cm dishes and transfected overnight by calcium phosphate coprecipitation with 5 μg reporter gene, 1 μg actin β-HCG, and 1 μg of HEO, 300 ng each of c-jun and c-fos expression vectors. The cells were glycerol shocked and refed in growth medium containing hormone or ethanolic vehicle.
CAT assays were carried out as described in Webb et al., except that the cells were harvested one to two days after transfection instead of three. CAT activities were defined as the increase in cpm per hour at room temperature (corrected for background) per 100 μl of cell extract, normalized to production of 100 standard units of βHCG, from a co-transfected reporter gene, actin-HCG. […] Light units were defined as the luciferase activity per 100 μl of cell extract per 100 standard units of βHCG. Relative luciferase activities were calculated with respect to the results that were obtained in the absence of ER and hormone, which was set at 1 unit. For the data presented in Table I triplicate points were determined.
To further examine the effects of antiestrogens on the AP-1 directed pathway, reporter genes derived from the human collagenase promoter were transfected into HeLa cells.

[3] = test system: ER at classical ERE; test: Reporter genes containing classical EREs (ERE-coll60, ERE-tk) in cells with ER; assay type: cell-based, human
Method: FIGS. 2A-2C show antiestrogen stimulation of expression in an intact AP-1 Site, but not at classical EREs. […] Representations, at left, show the human collagenase promoter (shaded) and the consensus AP-1 site. CAT activities were from cells maintained in the absence of hormone or saturating concentrations of ICI 164,384 (ICI, 1 μM), tamoxifen (5 μM) or estradiol ([…]). CAT activity is normalized to a transfection control with the actin promoter driving expression of βHCG. Single representative experiments are shown, error bars represent standard deviation of triplicate hormone treatments.
All reporter genes described below have been modified by digestion with EcoR I and Ndel to remove a AP-I site in the backbone of pUG. Thus, Coll73 and Coll60 are formerly_Coll73 and_Coll60 (Lopez et al. Mol. Cell. Biol. 13:3042-930 (1993)). Coll73-LUC was constructed by cloning a BamHI/Pvull fragment, that spanned the luciferase transcription unit, from pMG3 into coll73, which had been digested with BamHI and SmaI to remove the CAT transcription unit. EREcoll60 and EREcoll73 was prepared by ligation of a consensus ERE ([…], SEQ ID NO:3), into the HindIII site upstream of coll60 and coll73, respectively. All other reporter genes have been previously described (Webb et al. Mol. Endocrinol. 6:157-16725 (1992): and Lopez et al., supra).
Cells were maintained and transfected as previously described in Webb et al., supra. Hormones were added two hours after plating in the following concentrations, estradiol 100 nM, ICI 164,384 1 μM, tamoxifen 5 μM, to ensure saturation of the response. F9 cells were seeded at 30% confluence upon 1.5 cm dishes and transfected overnight by calcium phosphate coprecipitation with 5 μg reporter gene, 1 μg actin β-HCG, and 1 μg of HEO, 300 ng each of c-jun and c-fos expression vectors. The cells were glycerol shocked and refed in growth medium containing hormone or ethanolic vehicle. In transient transfections, optimal amounts of HEO were employed and were as follows: HeLa (5 μg); NIH3T3 (1 μg); HepG2 (1 μg); SHM (300 ng); SY5Y (300 ng); CEF (100 ng); CV-1 (3 μg); MDA453 (3 μg); CHO (100 ng) and F9 (1 μg).
CAT assays were carried out as described in Webb et al., except that the cells were harvested one to two days after transfection instead of three. CAT activities were defined as the increase in cpm per hour at room temperature (corrected for background) per 100 μl of cell extract, normalized to production of 100 standard units of βHCG, from a co-transfected reporter gene, actin-HCG. Luciferase assays were performed as described by Brasier et al. Methods Enzymol 216:386-97 (1992)) on similar extracts that were used for CAT assays. Light units were defined as the luciferase activity per 100 μl of cell extract per 100 standard units of βHCG. Relative luciferase activities were calculated with respect to the results that were obtained in the absence of ER and hormone, which was set at 1 unit. For the data presented in Table I triplicate points were determined. Standard deviations were less than 20%.
The activity of antiestrogens in the AP-1 pathway was also compared with their activity in the classical pathway. […] A promoter with both an ERE and an AP-1 site (ERE-coll73 FIG. 2C) gave a large estrogen response, but retained some response to antiestrogens. Another control reporter, in which the tk promoter was regulated by a classical ERE (ERE-tk FIG. 2C) was also activated by estrogen, but not by antiestrogens.

[4] = test system: ER at the AP-1 site of the collagenase promoter; test: Collagenase promoter reporter in cells that express endogenous ER (Ishikawa, MCF-7, ZR-75-1); assay type: cell-based
Method: Left panel, coll73-CAT response with endogenous ER contrasted with the response of an ERE regulated reporter, ERE-coll60CAT. Right panel, coll73-LUC response with 3 μg co-transfected expression vector for human ER. Averages of three individual experiments are shown. […] A single representative experiment with triplicate hormone treatments is shown.
(§1) To further explore this phenomenon, and to test whether similar hormone effects could be detected at physiological levels of ER, the expression of the collagenase promoter in cells that express endogenous ER was examined.

[5] = test system: ER at classical ERE, Ishikawa cells; test: ERE-coll60CAT reporter in Ishikawa cells; assay type: cell-based
Description: Left panel, coll73-CAT response with endogenous ER contrasted with the response of an ERE regulated reporter, ERE-coll60CAT. […] Averages of three individual experiments are shown. […] A single representative experiment with triplicate hormone treatments is shown.
as §1

[6] = test system: CHO cells, which lack functioning ER; test: Negative control: estrogen-responsive reporter constructs in CHO cells which lack functioning ER; assay type: cell-based; details: same estrogen-responsive reporter constructs
Description: To examine whether the series 4 compounds induce estrogenic activity through the ER, we tested the ability of ICI 164384 to inhibit the series 4 estrogenic activity. […] As a negative control, CHO cells, which lack functioning ER, were transfected with the same estrogen-responsive reporter constructs and treated with 17β-estradiol and the series 4 hydroxystilbenes.

[7] = test system: MCF-7 cell; details: Braacke et al. 1991; cited from earlier work

C[C@]12CC[C@@H]3c4ccc(O)cc4CC[C@H]3[C@@H]1CC[C@@H]2O [estradiol, 17β-estradiol]
estrogen response of Δcoll73 [1]: failed to respond
activation of the collagenase promoter (coll517, coll73) [2]: activated
estrogen response of EREΔcoll60 (classical ERE substituted for AP1 site) ([3]; ERC1 cells): restored estrogen response
activation of ERE-tk ([3]; HeLa cells, FIG. 2C): activated
activation of the collagenase promoter (coll73-CAT) ([4]; Ishikawa cells, endogenous receptor, FIG. 4A): activated
induction of the collagenase promoter (coll73-LUC) ([4]; Ishikawa cells, receptor levels raised by transfection): inductions became larger
activation of the collagenase promoter ([4]; MCF-7 cells, endogenous ER, FIG. 4B): activated
activation of the collagenase promoter ([4]; ZR-75-1 cells): The same pattern occurred
expression of ERE-coll60 [5]: tenfold
estrogenic activity in cells lacking functioning ER [6]: no estrogenic activity
MCF-7 cell invasion activity of a re-constituted basement membrane [7]: stimulated
